# “And” between values parts separate entries of the source, which are not always exact repeats. Equal entries are not always repeated.
# How the values were obtained:
# Format in all cases: cell-based, human
# AT1R = experiment: BRET recording of AT1R removal from the PM (AT1R-RlucII / rGFP-CAAX); details: for AngII-promoted BRET, AT1R removal from the PM: Comp 21 50 μM, individual experiments
# Description: HEK293SL cells were seeded at a density of 7.5 × 10^5 cells per 100-mm dish and 24 h later, transiently transfected as such. For receptor internalization experiments, cells were transfected with 0.12 μg AT1R-RlucII, B2R-RlucII, or β2AR-RlucII and 0.48 μg of either rGFP-CAAX (to assess removal from the PM) or rGFP-FYVE (to assess accumulation in the endosomes). For β-arrestin recruitment assays, cells were transfected with 0.48 μg of receptor-YFP along with 0.12 μg of β-arrestin-RlucII. For β-arrestin/AP-2 binding experiments, cells were transfected with 1 μg Flag-AT1R, 1 μg β2-Adaptin-YFP, and 0.12 μg β-arrestin2-RlucII. For G protein activation, cells were transfected with 3 μg of sp-Flag-AT1R along with either 4.5 μg of the Gαq-polycistronic BRET sensor or 0.24 μg of the Gαi3-RlucII and 0.6 μg of GFP10-Gγ2 and Gβ1 sensors or 0.12 μg PKN-RBD-RlucII and 0.48 μg of rGFP-CAAX. For PKC activation, cells were transfected with 3 μg of sp-Flag-AT1R and 0.18 μg of the PKC sensor. For GTPase activation experiments, cells were transfected with 1 μg Flag-AT1R, 0.48 μg of rGFP-CAAX, and either 0.12 μg of GGA3-PBD-RlucII, PAK-CRIB-RlucII or Raf-RBD-RlucII. For biosensor validation experiments, cells were additionally transfected with 500 ng Flag-K-Ras-WT, Flag-K-Ras-G12V, Flag-K-Ras-SOS-CAAX, HA-ARF6-WT, HA-ARF6-T27N, Myc-Rac1-WT, Myc-Rac1-Q61L or Myc-Rac1-T17N. For PI3K/Akt activation experiments, cells were transfected with 0.48 μg of rGFP-CAAX and 0.12 μg of Akt (PH)-RlucII. After 18 h of transfection, the media was replaced and cells were divided for subsequent experiments. Cells were detached and seeded onto poly-L-ornithine-coated 96-well flat white bottom plates (BrandTech Scientific) at a density of 2.5 × 10^4 cells per well in media. The next day, cells were washed once with Tyrode’s buffer (140 mM NaCl, 2.7 mM KCl, 1 mM CaCl2, 12 mM NaHCO3, 5.6 mM D-glucose, 0.5 mM MgCl2, 0.37 mM NaH2PO4, 25 mM HEPES, pH 7.4) and left in Tyrode’s buffer. For kinetics of β-arrestin recruitment or β-arrestin binding to receptor and AP-2 experiments, cells were serum starved for 30 min, pretreated with 21 (50 µM) or Barbadin (100 µM) for 30 min, stimulated with 100 nM AngII or 1 µM BK and BRET signals were monitored at indicated times using a Victor X Light plate reader (PerkinElmer). Coelenterazine H (final concentration of 5 µM) was added 3–5 min prior to BRET measurements. Filter set was 460/80 nm and 535/30 nm for detecting the RlucII Renilla luciferase (donor) and YFP (acceptor) light emissions, respectively. The BRET ratio was determined by calculating the ratio of the light emitted by YFP over the light emitted by the RlucII. For G protein activation, cells were serum starved, pretreated with compounds for 30 min, stimulated with 100 nM AngII for 2 min (Gαq, Gαi3, and Rho sensors) or 5 min (PKC sensor). For the kinetics of GTPase and PI3K/Akt activation, cells were serum starved, pretreated with 21 (50 µM) or Wortmannin (200 nM) for 30 min, stimulated with ligand (100 nM AngII or 100 ng/ml EGF) and BRET signals were monitored at indicated times. […] BRET signals were monitored using a Synergy2 (BioTek) microplate reader and coelenterazine 400a (final concentrations of 5 µM) added 3–5 min prior to BRET measurements. […] The BRET ratio was determined by calculating the ratio of the light emitted by rGFP/GFP10 over the light emitted by the RlucII.
# [1] = tested on: ERK1/2 activation by AT1R; experiment: Western blot of AT1R-mediated ERK1/2 activation in β-arrestin1/2 KO cells; details: for ERK1/2 activation by AT1R in β-arrestin1/2 KO cells: 50 μM
# Description: (§1) HEK293SL cells (10^5 cells per well) were seeded in a poly-L-lysine-coated six-well plate and transiently transfected with 3 μg Flag-AT1R, HA-B2R or HA-β2AR and/or 500 ng Flag-MEK1-WT, Flag-MEK1-DD, Flag-BRAF-WT, Flag-BRAF-V600E, Flag-K-Ras-WT, Flag-K-Ras-G12V, HA-ARF6-WT, or HA-ARF6-T27N. Gαq/11 KO and βarr1/2 KO cells were seeded onto 100 mm dishes at a density of 10^6 cells per dish. Next day, cells were transfected with 3 μg AT1R alone or along with 500 ng of β-arrestin2 using PEI. After 18 h of transfection, cells were detached and re-seeded onto poly-L-lysine coated 12-well plates (~1.5–2 × 10^5cells/well) for subsequent experiments. Forty-eight hours post transfection, in a 37 °C water bath, cells were serum-starved for 30 min, pretreated with DMSO (0.1%) or compound 21/Rasarfin (50 µM or at indicated concentrations) for 30 min, then stimulated or not with the indicated ligand [AngII (1 µM), BK (1 µM), Iso (10 µM) or EGF (100 ng/ml)] at indicated times. Cells were put on ice, washed with PBS and solubilized in 2x laemmli buffer (250 mM Tris–HCl pH 6.8, 2% SDS (w/v), 10% glycerol (v/v), 0.01% bromophenol blue (w/v) and 5% β-mercaptoethanol (v/v)) by heating at 65 °C for 15 min. Lysates were resolved on 10 or 14% SDS-PAGE, transferred to nitrocellulose membranes and immunoblotted for p-ERK1/2, ERK1/2, p-Akt, Akt, HA, Myc, β-actin or FLAG. ImageLab 5.2 software was used to quantify the digital blots as fold of the phosphorylated protein over total protein, which were then normalized as indicated in the figure legends. Uncropped immunoblots are provided in the Source Data file.
# [2] = tested on: ERK1/2 activation by β2AR; experiment: Western blot of β2AR-mediated ERK1/2 phosphorylation; details: for p-ERK1/2 over ERK1/2, normalized to basal (0 min), b2AR: Comp 21 50 μM, individual experiments
# Description: as §1
compound,measurement,setting,value
CC(C)C(=O)N1CCN(c2ccc(NC(=O)c3cc4ccccc4o3)cc2Cl)CC1 [Compound 21],AngII-bound AT1R removal from the PM,AT1R; 50 μM,slowed down and decreased the extent of AngII-bound AT1R removal from the PM
same,"AngII-promoted BRET, AT1R removal from the PM",AT1R; time 0 min,0
same,"AngII-promoted BRET, AT1R removal from the PM",AT1R; time 5 min,-0.084 and -0.3663 and -0.1717 and -0.07933
same,"AngII-promoted BRET, AT1R removal from the PM",AT1R; time 15 min,-0.132 and -0.4823 and -0.452 and -0.243
same,"AngII-promoted BRET, AT1R removal from the PM",AT1R; time 30 min,-0.166 and -0.515 and -0.398 and -0.3753
same,ERK1/2 activation by AT1R in β-arrestin1/2 KO cells,[1],similarly inhibited ERK1/2 activation
same,ERK1/2 activation by AT1R in β-arrestin1/2 KO cells,[1]; listed as Rasarfin,totally blocked
same,ERK1/2 activation relative to time 0 (S_Fig.4a),"[1]; barr1/2 KO cells, Time 0 min",1
same,Mean Diff. DMSO - Comp 21 (Bonferroni's multiple comparisons test),"[1]; barr1/2 KO cells, Time 0 min",0
same,Mean Diff. DMSO - Comp 21 (Bonferroni's multiple comparisons test),"[1]; barr1/2 KO cells, Time 5 min",8.446
same,Mean Diff. DMSO - Comp 21 (Bonferroni's multiple comparisons test),"[1]; barr1/2 KO cells, Time 20 min",10.85
same,MAPK response promoted by β2AR,[2]; 50 μM,blocked MAPK responses
same,"p-ERK1/2 over ERK1/2, normalized to basal (0 min), b2AR",[2]; time 0 min,1
same,"p-ERK1/2 over ERK1/2, normalized to basal (0 min), b2AR",[2]; time 2 min,1.344 and 1.8469 and 1.974 and 1.462
same,"p-ERK1/2 over ERK1/2, normalized to basal (0 min), b2AR",[2]; time 5 min,1.8675 and 1.745 and 1.249 and 1.487
